Measured values published in patent US11081236B2, “Diagnostic and therapeutic methods for the treatment of breast cancer” (GENENTECH, INC., priority 2018, dated 2021).

What was measured:
Format in all cases: cell-based
EFM19 = test: RNA sequencing after E2 or DMSO treatment, EFM19
Method: (§1) To derive a transcriptional signature of ER pathway activity, RNA sequencing was performed on seven breast cancer cell lines following treatment with either DMSO or 1 μM estradiol (E2) for 24 hours. Briefly, RNA libraries for cell lines were made with TRUSEQ® RNA sample preparation kit (ILLUMINA®) according to the manufacturer's protocol. The libraries were sequenced on an ILLUMINA® Hi Seq 2000, using 1-4 lanes per cell line. RNA sequencing (RNA-seq) data were analyzed with HTSeqGenie (R package version 3.14.0) in BioConductor (Huber et al. Nature Methods. 112:115-21, 2015) as follows: reads were trimmed to 75 base pairs (bp), filtered for quality and rRNA/adapter contamination, and aligned to the reference genome GRCh38 using GSNAP (Wu et al. Bioinforma Oxf Engl. 26:873-81, 2010). Gene expression was quantified as Reads per Kilobase of exon model per Million mapped reads normalized by size factor (nRPKM), defined as number of reads aligning to a gene in a sample/(total number of uniquely mapped reads for that sample x gene length x size factor). Genes without gene symbol and genes of uncertain function (LOC and Corf symbols) were excluded.

T47D = test: RNA sequencing after E2 or DMSO treatment, T47D
Method: as §1

BT474 = test: RNA sequencing after E2 or DMSO treatment, BT474
Method: as §1

CAMA1 = test: RNA sequencing after E2 or DMSO treatment, CAMA1
Method: as §1

[1] = gene NBEA, 1 μM E2 24 hours vs DMSO
[2] = gene PNPLA7, 1 μM E2 24 hours vs DMSO
[3] = gene PSCA, 1 μM E2 24 hours vs DMSO
[4] = gene SEMASE, 1 μM E2 24 hours vs DMSO
[5] = gene SSPO, 1 μM E2 24 hours vs DMSO
[6] = gene STON1, 1 μM E2 24 hours vs DMSO
[7] = gene TGFB3, 1 μM E2 24 hours vs DMSO
[8] = gene TP53INP1, 1 μM E2 24 hours vs DMSO
[9] = gene TP53INP2, 1 μM E2 24 hours vs DMSO
[10] = gene BAMBI, 1 μM E2 24 hours vs DMSO
[11] = gene BCAS1, 1 μM E2 24 hours vs DMSO
[12] = gene CCNG2, 1 μM E2 24 hours vs DMSO
[13] = gene DDEE4, 1 μM E2 24 hours vs DMSO
[14] = gene EGLN3, 1 μM E2 24 hours vs DMSO
[15] = gene FAM1718, 1 μM E2 24 hours vs DMSO
[16] = gene GRM4, 1 μM E2 24 hours vs DMSO
[17] = gene IL1R1, 1 μM E2 24 hours vs DMSO
[18] = gene LIPH, 1 μM E2 24 hours vs DMSO

For `C[C@]12CC[C@@H]3c4ccc(O)cc4CC[C@H]3[C@@H]1CC[C@@H]2O` [Compound E2, estradiol], the “Log2 FC E2 vs no E2: NBEA” value (EFM19; [1]) was −1.105, the “Log2 FC E2 vs no E2: PNPLA7” value (EFM19; [2]) was −0.901 and the “Log2 FC E2 vs no E2: PSCA” value (EFM19; [3]) was −1.593. For the same compound, the “Log2 FC E2 vs no E2: SEMASE” value (EFM19; [4]) was −1.100, the “Log2 FC E2 vs no E2: SSPO” value (EFM19; [5]) was −0.605 and the “Log2 FC E2 vs no E2: STON1” value (EFM19; [6]) was −1.500. The “Log2 FC E2 vs no E2: TGFB3” value (EFM19; [7]) was −1.350, the “Log2 FC E2 vs no E2: TP53INP1” value (EFM19; [8]) was −1.461 and the “Log2 FC E2 vs no E2: TP53INP2” value (EFM19; [9]) was −1.373. The “Log2 FC E2 vs no E2: BAMBI” value (T47D; [10]) was −1.394, the “Log2 FC E2 vs no E2: BCAS1” value (T47D; [11]) was −2.536 and the “Log2 FC E2 vs no E2: CCNG2” value (T47D; [12]) was −1.310. The “Log2 FC E2 vs no E2: DDEE4” value (T47D; [13]) was −1.878, the “Log2 FC E2 vs no E2: EGLN3” value (T47D; [14]) was −2.052 and the “Log2 FC E2 vs no E2: FAM1718” value (T47D; [15]) was −1.158. For the same compound, the “Log2 FC E2 vs no E2: GRM4” value (T47D; [16]) was −1.340, the “Log2 FC E2 vs no E2: IL1R1” value (T47D; [17]) was −2.433 and the “Log2 FC E2 vs no E2: LIPH” value (T47D; [18]) was −1.330. The “Log2 FC E2 vs no E2: NBEA” value (T47D; [1]) was −1.368, the “Log2 FC E2 vs no E2: PNPLA7” value (T47D; [2]) was −1.211 and the “Log2 FC E2 vs no E2: PSCA” value (T47D; [3]) was −1.253. The “Log2 FC E2 vs no E2: SEMASE” value (T47D; [4]) was −0.741, the “Log2 FC E2 vs no E2: SSPO” value (T47D; [5]) was −1.181 and the “Log2 FC E2 vs no E2: STON1” value (T47D; [6]) was −2.304. The “Log2 FC E2 vs no E2: TGFB3” value (T47D; [7]) was −1.263, the “Log2 FC E2 vs no E2: TP53INP1” value (T47D; [8]) was −1.363 and the “Log2 FC E2 vs no E2: TP53INP2” value (T47D; [9]) was −0.959. The “Log2 FC E2 vs no E2: BAMBI” value (BT474; [10]) was −1.153, the “Log2 FC E2 vs no E2: BCAS1” value (BT474; [11]) was −1.110 and the “Log2 FC E2 vs no E2: CCNG2” value (BT474; [12]) was −0.935. For the same compound, the “Log2 FC E2 vs no E2: DDEE4” value (BT474; [13]) was −0.862, the “Log2 FC E2 vs no E2: EGLN3” value (BT474; [14]) was −0.118 and the “Log2 FC E2 vs no E2: FAM1718” value (BT474; [15]) was −1.279. For the same compound, the “Log2 FC E2 vs no E2: GRM4” value (BT474; [16]) was −1.883, the “Log2 FC E2 vs no E2: IL1R1” value (BT474; [17]) was −1.490 and the “Log2 FC E2 vs no E2: LIPH” value (BT474; [18]) was −0.804. For the same compound, the “Log2 FC E2 vs no E2: NBEA” value (BT474; [1]) was −0.346, the “Log2 FC E2 vs no E2: PNPLA7” value (BT474; [2]) was −1.427 and the “Log2 FC E2 vs no E2: PSCA” value (BT474; [3]) was −1.956. For the same compound, the “Log2 FC E2 vs no E2: SEMASE” value (BT474; [4]) was −1.101, the “Log2 FC E2 vs no E2: SSPO” value (BT474; [5]) was −1.739 and the “Log2 FC E2 vs no E2: STON1” value (BT474; [6]) was −0.650. For the same compound, the “Log2 FC E2 vs no E2: TGFB3” value (BT474; [7]) was −0.304, the “Log2 FC E2 vs no E2: TP53INP1” value (BT474; [8]) was −1.496 and the “Log2 FC E2 vs no E2: TP53INP2” value (BT474; [9]) was −2.069. For the same compound, the “Log2 FC E2 vs no E2: BAMBI” value (CAMA1; [10]) was −1.072, the “Log2 FC E2 vs no E2: BCAS1” value (CAMA1; [11]) was −2.311 and the “Log2 FC E2 vs no E2: CCNG2” value (CAMA1; [12]) was −2.094. For the same compound, the “Log2 FC E2 vs no E2: DDEE4” value (CAMA1; [13]) was −2.737, the “Log2 FC E2 vs no E2: EGLN3” value (CAMA1; [14]) was −1.533 and the “Log2 FC E2 vs no E2: FAM1718” value (CAMA1; [15]) was −2.271. The “Log2 FC E2 vs no E2: GRM4” value (CAMA1; [16]) was −2.021, the “Log2 FC E2 vs no E2: IL1R1” value (CAMA1; [17]) was −1.686 and the “Log2 FC E2 vs no E2: LIPH” value (CAMA1; [18]) was −1.583. For the same compound, the “Log2 FC E2 vs no E2: NBEA” value (CAMA1; [1]) was −1.550, the “Log2 FC E2 vs no E2: PNPLA7” value (CAMA1; [2]) was −2.068 and the “Log2 FC E2 vs no E2: PSCA” value (CAMA1; [3]) was −3.517. For the same compound, the “Log2 FC E2 vs no E2: SEMASE” value (CAMA1; [4]) was −1.374, the “Log2 FC E2 vs no E2: SSPO” value (CAMA1; [5]) was −2.298 and the “Log2 FC E2 vs no E2: STON1” value (CAMA1; [6]) was −2.609. The “Log2 FC E2 vs no E2: TGFB3” value (CAMA1; [7]) was −1.444, the “Log2 FC E2 vs no E2: TP53INP1” value (CAMA1; [8]) was −3.177 and the “Log2 FC E2 vs no E2: TP53INP2” value (CAMA1; [9]) was −2.068.
